Test results as given in ChEMBL document CHEMBL5356976, “Discovery of an adjuvant that resensitizes polymyxin B-resistant bacteria” (2024).
Converted amounts (≈) assume the structure as drawn. The source made the active and inactive calls. The rule behind the calls is not given here. Bridge positions count the residues as written; N and C are the ends. Square brackets hold non-standard residues; d marks the D form. Peptide text beside a SMILES is read from it. * marks the point of attachment. X1 = CC[C@H](C)CCCCC(=O)*; Dab = NCC[C@H](N)C(=O)O

How the values were obtained:
Escherichia coli [1] = assay: Antibacterial activity against Escherichia coli MG1655; type: functional
Escherichia coli [2] = assay: Antibacterial activity against resistant Escherichia coli MG1655; type: functional
Cell membrane [3] = assay: Induction of membrane permeabilization in polymyxin-B resistant Escherichia coli MG1655 assessed as increase in fluorescence by DiSC3(5) staining based fluorescence spectrometer analysis (reference value: 8.5); type: subcellular
Staphylococcus aureus = assay: Synergistic antibacterial activity against Staphylococcus aureus ATCC 29213 assessed as fold reduction in melittin activity at 75 mg/l by checkerboard assay; type: functional
Escherichia coli [4] = assay: Synergistic antibacterial activity against polymyxin B resistant Escherichia coli MG1655 assessed as fold reduction in polymyxin B MIC by checkerboard assay; type: functional
Cell membrane [5] = assay: Induction of membrane permeabilization in polymyxin-B resistant Escherichia coli MG1655 assessed as fluorescence increase incubated for 10 mins in presence of triton X-100 by DiSC3(5) dye based fluorescence spectrometer analysis; type: subcellular
Cell membrane [6] = assay: Induction of membrane permeabilization in polymyxin-B resistant Escherichia coli MG1655 assessed as increase in fluorescence after 4 mins by DiSC3(5) staining based fluorescence spectrometer analysis (reference value: 8.5); type: subcellular
Cell membrane [7] = assay: Induction of membrane permeabilization in polymyxin-B resistant Escherichia coli MG1655 assessed as fluorescence increase incubated for 10 mins in presence of polymyxin B by DiSC3(5) dye based fluorescence spectrometer analysis; type: subcellular
Escherichia coli [8] = assay: Additive antibacterial activity against Escherichia coli MG1655 assessed as fold reduction in polymyxin B MIC at 100 mg/L by checkerboard assay; type: functional
Escherichia coli [9] = assay: Synergistic antibacterial activity against polymyxin B resistant Escherichia coli MG1655 assessed as fractional inhibitory concentration by checkerboard assay; type: functional
Escherichia coli [10] = assay: Antibacterial activity against polymyxin-B resistant Escherichia coli MG1655; type: functional
Escherichia coli [11] = assay: Antibacterial activity against Escherichia coli MG1655 in presence of 50 mg/l perforone; type: functional
Escherichia coli [12] = assay: Antibacterial activity against Escherichia coli MG1655 in presence of 6.25 mg/l perforone; type: functional

SMILES: CC[C@H]1OC(=O)[C@H](C)[C@@H](O[C@H]2C[C@@](C)(OC)[C@@H](O)[C@H](C)O2)[C@H](C)[C@@H](O[C@@H]2O[C@H](C)C[C@H](N(C)C)[C@H]2O)[C@](C)(O)C[C@@H](C)CN(C)[C@H](C)[C@@H](O)[C@]1(C)O [AZITHROMYCIN]
- MIC (Escherichia coli [1]): 4 µg/mL (≈ 5.34 µM)
- MIC (Escherichia coli [2]): 128 µg/mL (≈ 171 µM)

SMILES: COc1c2c(nc3occc13)[C@@]1(OC)CCC(C)(C)O[C@@]1(O)CC2
- Flu intensity (Cell membrane [3]): 29.2 a.u.
- fold change (FC) (Staphylococcus aureus): 2
- fold change (FC) (Escherichia coli [4]): 16
- Activity (Cell membrane [5]): inactive
- Flu intensity (Cell membrane [6]): 19.7 a.u.
- Activity (Cell membrane [7]): inactive
- fold change (FC) (Escherichia coli [8]): 2
- FIC (Escherichia coli [9]): 0.19

SMILES: C[C@H]1c2cccc(O)c2C(=O)C2=C(O)[C@]3(O)C(=O)C(C(N)=O)=C(O)[C@@H](N(C)C)[C@@H]3[C@@H](O)[C@@H]21.O [DOXYCYCLINE]
- MIC (Escherichia coli [1]): 0.25 µg/mL
- MIC (Escherichia coli [2]): 60 µg/mL

SMILES: CC(C)C[C@@H]1NC(=O)[C@@H](Cc2ccccc2)NC(=O)[C@H](CCN)NC(=O)[C@@H](NC(=O)[C@H](CCN)NC(=O)[C@@H](NC(=O)[C@@H](N)CCN)[C@@H](C)O)CCNC(=O)[C@H]([C@@H](C)O)NC(=O)[C@H](CCN)NC(=O)[C@H](CCN)NC1=O (H-[Dab]T[Dab][Dab][Dab][dF]L[Dab][Dab]T; lactam 4-C)
- Activity (Escherichia coli [10]): Active

SMILES: CC[C@H](C)CCCCC(=O)N[C@@H](CCN)C(=O)N[C@H](C(=O)N[C@@H](CCN)C(=O)N[C@H]1CCNC(=O)[C@H]([C@@H](C)O)NC(=O)[C@H](CCN)NC(=O)[C@H](CCN)NC(=O)[C@H](CC(C)C)NC(=O)[C@@H](Cc2ccccc2)NC(=O)[C@H](CCN)NC1=O)[C@@H](C)O (X1-[Dab]T[Dab][Dab][Dab][dF]L[Dab][Dab]T; lactam 4-C)
- MIC (Escherichia coli [1]): 0.5 µg/mL (≈ 0.415 µM)
- MIC (Escherichia coli [11]): 16 µg/mL
- MIC (Escherichia coli [2]): 256 µg/mL (≈ 213 µM)
- MIC (Escherichia coli [10]): 256 µg/mL (≈ 213 µM)
- MIC (Escherichia coli [12]): 2 µg/mL
